Test results from PMC4033661 (Journal of medicinal chemistry, 2014).
Converted amounts (≈) assume the structure as drawn. “Also recorded” adds a separate entry of the source. Blank lines part the entries; values can stand above or below the compound they belong to.

Tests used:
[1] = molecular target: T1, human platelet 12-lipoxygenase (12-LOX) (Homo sapiens, UniProt P18054); experiment: Lipoxygenase UV-Vis assay, 12-LOX selectivity
T1 sequence (P18054 1-663): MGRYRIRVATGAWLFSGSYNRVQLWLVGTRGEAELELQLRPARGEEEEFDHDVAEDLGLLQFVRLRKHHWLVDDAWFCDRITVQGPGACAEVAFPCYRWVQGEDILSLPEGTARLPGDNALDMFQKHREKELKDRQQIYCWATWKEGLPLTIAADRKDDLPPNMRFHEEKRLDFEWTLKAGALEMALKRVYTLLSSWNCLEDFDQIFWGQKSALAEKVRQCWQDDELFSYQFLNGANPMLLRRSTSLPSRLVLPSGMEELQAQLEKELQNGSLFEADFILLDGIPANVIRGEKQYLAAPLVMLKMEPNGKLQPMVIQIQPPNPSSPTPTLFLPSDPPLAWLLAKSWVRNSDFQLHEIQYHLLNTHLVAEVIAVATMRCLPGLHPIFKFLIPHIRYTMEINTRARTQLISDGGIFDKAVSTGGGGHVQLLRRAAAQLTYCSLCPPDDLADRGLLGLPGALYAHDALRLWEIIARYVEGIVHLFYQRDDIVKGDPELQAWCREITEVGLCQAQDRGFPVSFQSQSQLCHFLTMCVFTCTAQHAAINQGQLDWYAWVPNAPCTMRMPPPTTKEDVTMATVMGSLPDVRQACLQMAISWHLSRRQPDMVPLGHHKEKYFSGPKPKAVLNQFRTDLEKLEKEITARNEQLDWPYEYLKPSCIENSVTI

[2] = Microsomal stability, mouse; type: in vitro ADME; conditions: mouse liver microsomes, in the presence of NADPH
[3] = Microsomal stability, rat; type: in vitro ADME; conditions: rat liver microsomes, in the presence of NADPH
[4] = Aqueous kinetic solubility in PBS buffer; type: physicochemical; conditions: pH 7.4
[5] = Stability in aqueous solutions; type: physicochemical; conditions: pH 2, pH 7.4, pH 9
HT22 cells = experiment: HT22 cell culture assay, glutamate-induced cell death; type: cell-based, mouse
human 12/15-LOX = conditions: read-out: 12/15-LOX IC50; cited from earlier work

IC50 [1]: > 50 µM
Compound: CNc1sc(-c2cccc3ccccc23)nc1C#N [Compound 32, 5-(methylamino)-2-(naphthalen-1-yl)thiazole-4-carbonitrile]

Microsomal Stability T1/2 [2]: 5.5 (mouse) min
Microsomal Stability T1/2 [3]: 18 (rat) min
solubility kinetic [4]: 1.2 µM (≈ 0.299 µg/mL)
stability in aqueous solutions [5]: stable
Compound: CNc1oc(-c2cccc3ccccc23)nc1C#N [Compound 1, 5-(Methylamino)-2-(naphthalen-1-yl)oxazole-4-carbonitrile]
protection against oxidative glutamate toxicity (HT22 cells; HT22 cells, 5 mM glutamate, increasing amounts of compound): protective; also recorded: dose-dependent protection

Compound: O=c1cc(-c2ccccc2)oc2cc(O)c(O)c(O)c12 [baicalein]
IC50 (human 12/15-LOX): 1.6 µM

Compound: C[C@H]1[C@H](C)CC[C@]2(C)CC[C@]3(C)C(=CC[C@@H]4[C@@]5(C)CC[C@@H](O)[C@](C)(C(=O)O)[C@@H]5CC[C@]43C)[C@H]12 [boswellic acid]
IC50 (human 12/15-LOX): 1 µM

Compound: CNc1nc(C#N)c(-c2cccc3ccccc23)o1 [Compound 34]
cellular protection in HT22 cells (HT22 cells; 5 μM concentration, glutamate-treated): did not protect; also recorded: does not protect
